We go through 31 compounds from patent US10076519B2 (CYTOKINETICS, INC., priority 2010, dated 2018).

The structures appear in SMILES notation.

One assay deals with rabbit skeletal myofibrils (fast skeletal myofibrils). Briefly: Activation of fast skeletal myofibrils (PUMA assay, PK/LDH-coupled ATPase at pCa25). Particulars: AC1.4 determined according to the procedure of Example 39; reported as class symbols. The format is biochemical. In short, it runs like this: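 ATPase activity of Triton-washed rabbit skeletal myofibrils, roughly 90% fast fibres, tracked by NADH loss at 340 nm through a PK/LDH-coupled ADP-regenerating system. Calcium set to 25% of maximal activity (pCa25), in PIPES 12 mM pH 6.8 with 2 mM MgCl2 and 1 mM DTT; AC1.4 reported.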
Consider `CC(C)(CNc1ccc(C(=O)NCC(N)=O)nn1)c1ccc(F)cc1` [N-(carbamoylmethyl)(6-{[2-(4-fluorophenyl)-2-methylpropyl]amino}pyridazin-3-yl)carboxamide], for which the “Mean AC1.4” value is listed as “D (D=>20 uM)”.

For `CC(=O)Nc1nc(-c2ccc(NCC(C)(C)c3ccc(F)cc3)nn2)c[nH]1` [N-[4-(6-{[2-(4-fluorophenyl)-2-methylpropyl]amino}pyridazin-3-yl)imidazol-2-yl]acetamide], the “Mean AC1.4” value is on record as “C (C=10-20 uM)”.

On to `COC(=O)Nc1n[nH]c2ccc(-c3ccc(NCC(C)(C)c4ccc(F)cc4)nn3)cc12` [N-[5-(6-{[2-(4-fluorophenyl)-2-methylpropyl]amino}pyridazin-3-yl)(1H-indazol-3-yl)]methoxycarboxamide], for which the “Mean AC1.4” value is on record as “A (A=<1 uM)”.

Still in this assay, the particulars now being: median AC1.4 class, procedure of Example 39.
As for `O=C(N[C@@H]1CCNC1)c1cnc(-c2ccc(NCC3(c4ncccc4F)CCC3)nn2)s1` [N-((3R)pyrrolidin-3-yl){2-[6-({[(3-fluoro(2-pyridyl))cyclobutyl]methyl}ami-no)pyridazin-3-yl](1,3-thiazol-5-yl)}carboxamide], the “Mean AC1.4” value is “A (A=<1 uM)”.

Turning to `O=C(N[C@@H]1CCNC1)c1ccc(F)c(-c2ccc(NC[C@]3(c4ncccc4F)C[C@H](F)C3)nn2)c1` [N-((3R)pyrrolidin-3-yl){4-fluoro-3-[6-({[3-fluoro-1-(3-fluoro(2-pyridyl))cyclobutyl]methyl}ami-no)pyridazin-3-yl]phenyl}carboxamide], the “Mean AC1.4” value is on record as “B (B=1-10 uM)”.

With `O=C(N[C@H]1CCNC1)c1cnc(-c2ccc(NCC3(c4ncccc4F)CCC3)nn2)s1` [N-((3S)pyrrolidin-3-yl){2-[6-({[(3-fluoro(2-pyridyl))cyclobutyl]methyl}ami-no)pyridazin-3-yl](1,3-thiazol-5-yl)}carboxamide], the “Mean AC1.4” value is listed as “A (A=<1 uM)”.

On to `O=C(N[C@H]1CCNC1)c1ccc(F)c(-c2ccc(NC[C@]3(c4ncccc4F)C[C@H](F)C3)nn2)c1` [N-((3S)pyrrolidin-3-yl){4-fluoro-3-[6-({[3-fluoro-1-(3-fluoro(2-pyridyl))cyclobutyl]methyl}ami-no)pyridazin-3-yl]phenyl}carboxamide], for which the “Mean AC1.4” value is “B (B=1-10 uM)”.

Take `NC(=O)CNC(=O)c1ccc(NCC2(c3ncccc3F)CCC2)nn1` [N-(carbamoylmethyl)[6-({[(3-fluoro(2-pyridyl))cyclobutyl]methyl}ami-no)pyridazin-3-yl]carboxamide]: the “Mean AC1.4” value is recorded as “D (D=>20 uM)”.

With `NC(=O)CNC(=O)c1cnc(-c2ccc(NCC3(c4ncccc4F)CCC3)nn2)s1` [N-(carbamoylmethyl){2-[6-({[(3-fluoro(2-pyridyl))cyclobutyl]methyl}ami-no)pyridazin-3-yl](1,3-thiazol-5-yl)}carboxamide], the “Mean AC1.4” value is “A (A=<1 uM)”.

As for `O=C(NCc1cnc(-c2ccc(NCC3(c4ncccc4F)CCC3)nn2)s1)c1cnc(O)[nH]1` [N-({2-[6-({[(3-fluoro(2-pyridyl))cyclobutyl]methyl}ami-no)pyridazin-3-yl](1,3-thiazol-5-yl)}methyl)(2-hydroxyimidazol-5-yl)carboxamide], the “Mean AC1.4” value is recorded as “A (A=<1 uM)”.

Turning to `CC(C)(O)C(=O)NCc1cnc(-c2ccc(NCC3(c4ncccc4F)CCC3)nn2)s1` [N-({2-[6-({[(3-fluoro(2-pyridyl))cyclobutyl]methyl}ami-no)pyridazin-3-yl](1,3-thiazol-5-yl)}methyl)-2-hydroxy-2-methylpropanamide], the “Mean AC1.4” value is “A (A=<1 uM)”.

For the compound `O=C(CO)NCc1cnc(-c2ccc(NCC3(c4ncccc4F)CCC3)nn2)s1` [N-({2-[6-({[(3-fluoro(2-pyridyl))cyclobutyl]methyl}ami-no)pyridazin-3-yl](1,3-thiazol-5-yl)}methyl)-2-hydroxyacetamide], the “Mean AC1.4” value is given as “A (A=<1 uM)”.

With `CC(C)C(=O)NCc1cnc(-c2ccc(NCC3(c4ncccc4F)CCC3)nn2)s1` [N-({2-[6-({[(3-fluoro(2-pyridyl))cyclobutyl]methyl}ami-no)pyridazin-3-yl](1,3-thiazol-5-yl)}methyl)-2-methylpropanamide], the “Mean AC1.4” value is given as “A (A=<1 uM)”.

In the case of `O=C(NCc1cnc(-c2ccc(NCC3(c4ncccc4F)CCC3)nn2)s1)c1ncc[nH]1` [N-({2-[6-({[(3-fluoro(2-pyridyl))cyclobutyl]methyl}ami-no)pyridazin-3-yl](1,3-thiazol-5-yl)}methyl)imidazol-2-ylcarboxamide], the “Mean AC1.4” value is listed as “A (A=<1 uM)”.

Regarding `O=C(NCc1cnc(-c2ccc(NCC3(c4ncccc4F)CCC3)nn2)s1)c1cnc[nH]1` [N-({2-[6-({[(3-fluoro(2-pyridyl))cyclobutyl]methyl}ami-no)pyridazin-3-yl](1,3-thiazol-5-yl)}methyl)imidazol-5-ylcarboxamide], the “Mean AC1.4” value was “A (A=<1 uM)”.

In the case of `COC(=O)NCc1cnc(-c2ccc(NCC3(c4ncccc4F)CCC3)nn2)s1` [N-({2-[6-({[(3-fluoro(2-pyridyl))cyclobutyl]methyl}ami-no)pyridazin-3-yl](1,3-thiazol-5-yl)}methyl)methoxycarboxamide], the “Mean AC1.4” value is reported as “B (B=1-10 uM)”.

Turning to `O=C(NCc1cnc(-c2ccc(NCC3(c4ncccc4F)CCC3)nn2)s1)c1cn[nH]c1` [N-({2-[6-({[(3-fluoro(2-pyridyl))cyclobutyl]methyl}ami-no)pyridazin-3-yl](1,3-thiazol-5-yl)}methyl)pyrazol-4-ylcarboxamide], the “Mean AC1.4” value was “A (A=<1 uM)”.

As for `O=C(NCc1cnc(-c2ccc(NCC3(c4ncccc4F)CCC3)nn2)s1)c1ccn[nH]1` [N-({2-[6-({[(3-fluoro(2-pyridyl))cyclobutyl]methyl}ami-no)pyridazin-3-yl](1,3-thiazol-5-yl)}methyl)pyrazol-5-ylcarboxamide], the “Mean AC1.4” value is on record as “A (A=<1 uM)”.

Consider `O=C(NCc1cnc(-c2ccc(NCC3(c4ncccc4F)CCC3)nn2)s1)C1(NCc2ccccc2)COC1` [N-({2-[6-({[(3-fluoro(2-pyridyl))cyclobutyl]methyl}ami-no)pyridazin-3-yl](1,3-thiazol-5-yl)}methyl){3-[benzylamino]oxetan-3-yl}carboxamide], for which the “Mean AC1.4” value was “A (A=<1 uM)”.

For the compound `CC(=O)NCc1cnc(-c2ccc(NCC3(c4ncccc4F)CCC3)nn2)s1` [N-({2-[6-({[(3-fluoro-2-pyridyl)cyclobutyl]methyl}ami-no)pyridazin-3-yl]-1,3-thiazol-5-yl}methyl)acetamide], the “Mean AC1.4” value is “A (A=<1 uM)”.

The assay is the same for the next values; noted with them: median AC1.4 reported as class; procedure of Example 39.
On to `O=C(N[C@H]1CCNC1=O)c1ccc(NCC2(c3ncccc3F)CCC2)nn1` [N-((3S)-2-oxopyrrolidin-3-yl)[6-({[(3-fluoro(2-pyridyl))cyclobutyl]methyl}ami-no)pyridazin-3-yl]carboxamide], for which the “Mean AC1.4” value is “D (D=>20 uM)”.

For `O=C1CC[C@H](NC(=O)c2ccc(NCC3(c4ncccc4F)CCC3)nn2)CN1` [N-((3S)-6-oxo(3-piperidyl))[6-({[(3-fluoro(2-pyridyl))cyclobutyl]methyl}ami-no)pyridazin-3-yl]carboxamide], the “Mean AC1.4” value was “D (D=>20 uM)”.

Turning to `O=C(N[C@H]1CCOC1)c1cccc(-c2ccc(NC[C@]3(c4ncccc4F)C[C@H](F)C3)nn2)c1` [N-((3S)oxolan-3-yl){3-[6-({[3-fluoro-1-(3-fluoro(2-pyridyl))cyclobutyl]methyl}ami-no)pyridazin-3-yl]phenyl}carboxamide], the “Mean AC1.4” value is “B (B=1-10 uM)”.

As for `O=C(N[C@@H]1CS(=O)(=O)C[C@H]1O)c1cccc(-c2ccc(NC[C@]3(c4ncccc4F)C[C@H](F)C3)nn2)c1` [N-((3S,4S)-4-hydroxy-1,1-dioxothiolan-3-yl){3-[6-({[3-fluoro-1-(3-fluoro(2-pyridyl))cyclobutyl]methyl}ami-no)pyridazin-3-yl]phenyl}carboxamide], the “Mean AC1.4” value was “B (B=1-10 uM)”.

As for `CN(Cc1cnc(-c2ccc(NCC3(c4ncccc4F)CCC3)nn2)s1)C(=O)CO` [N-({2-[6-({[(3-fluoro(2-pyridyl))cyclobutyl]methyl}ami-no)pyridazin-3-yl](1,3-thiazol-5-yl)}methyl)-2-hydroxy-N-methylacetamide], the “Mean AC1.4” value is given as “B (B=1-10 uM)”.

For the compound `CNC(C)(C)C(=O)NCc1cnc(-c2ccc(NCC3(c4ncccc4F)CCC3)nn2)s1` [N-({2-[6-({[(3-fluoro(2-pyridyl))cyclobutyl]methyl}ami-no)pyridazin-3-yl](1,3-thiazol-5-yl)}methyl)-2-methyl-2-(methylamino)propanamide], the “Mean AC1.4” value was “A (A=<1 uM)”.

For the compound `CC(=O)NCc1cccc(-c2ccc(NC[C@]3(c4ncccc4F)C[C@H](F)C3)nn2)c1` [N-({3-[6-({[3-fluoro-1-(3-fluoro(2-pyridyl))cyclobutyl]methyl}ami-no)pyridazin-3-yl]phenyl}methyl)acetamide], the “Mean AC1.4” value is “B (B=1-10 uM)”.

`CC(=O)NCc1nc(-c2ccc(NCC3(c4ncccc4F)CCC3)nn2)cs1` [N-({4-[6-({[(3-fluoro-2-pyridyl)cyclobutyl]methyl}ami-no)pyridazin-3-yl]-1,3-thiazol-2-yl}methyl)acetamide]: the “Mean AC1.4” value is reported as “D (D=>20 uM)”.

With `CC(=O)NCc1ccc(F)c(-c2ccc(NC[C@]3(c4ncccc4F)C[C@H](F)C3)nn2)c1` [N-({4-fluoro-3-[6-({[3-fluoro-1-(3-fluoro(2-pyridyl))cyclobutyl]methyl}ami-no)pyridazin-3-yl]phenyl}methyl)acetamide], the “Mean AC1.4” value is listed as “B (B=1-10 uM)”.

Take `CC(=O)NCc1ncc(-c2ccc(NCC3(c4ncccc4F)CCC3)nn2)s1` [N-({5-[6-({[(3-fluoro-2-pyridyl)cyclobutyl]methyl}ami-no)pyridazin-3-yl]-1,3-thiazol-2-yl}methyl)acetamide]: the “Mean AC1.4” value was “B (B=1-10 uM)”.

With `NC(=O)Cc1csc(NC(=O)c2ccc(NCC3(c4ncccc4F)CCC3)nn2)n1` [N-[4-(carbamoylmethyl)(1,3-thiazol-2-yl)][6-({[(3-fluoro(2-pyridyl))cyclobutyl]methyl}ami-no)pyridazin-3-yl]carboxamide], the “Mean AC1.4” value is “A (A=<1 uM)”.
